According to US12533357B2, “Treatment for acute myeloid leukemia or myelodysplastic syndrome” (UNIVERSITY HEALTH NETWORK, priority 2019, dated 2026):

What was measured:
[1] = test system: MV4-11 acute myeloid leukemia xenograft; experiment: MV4-11 xenograft tumor growth in SCID mice; assay type: in vivo; settings: for tumor response by day 10: fumarate
Procedure: The human acute myeloid leukemia cell line MV4-11 was acquired from American Type Culture Collection (Manassas, VA, USA) and grown in RPMI medium containing 100 units/mL penicillin G sodium, 100 μg/mL streptomycin sulfate. The media was supplemented with 10% heat-inactivated fetal bovine serum, 2 mM L-glutamine, and 0.11% sodium pyruvate. The tumor cells were maintained in a humidified environment of 5% CO2 and 95% air at 37° C. Cells were verified to be free of mouse pathogens by IMPACT IV PCR analysis (IDEXX RADIL, Colombia, MO, USA) before injection.
Female SCID mice were purchased from the Ontario Cancer Institute and received and acclimated at the MaRS-TMDT Animal Resources Centre for 2 weeks prior to the start of the experiment. The mice were fed ad libitum autoclaved water and Rodent Lab Diet (Harlan Teklad LM-485) consisting of 19% crude protein, 5% crude fat, and 5% crude fiber. Mice were housed in microisolator cages and maintained in an environment with a 12-hour light cycle at 20-22° C. and 40-60% humidity. On the day of implantation, MV4-11 cells were harvested and resuspended with serum free DMEM to a concentration of 1×10^8/mL and each mouse was injected subcutaneously with a volume of 0.1 mL containing 1×10^7 MV4-11 cells in the right rear flank.
Animals were dosed Compound (I) via oral gavage in a volume of 10 ml/kg. The animals were dosed with a 2.25 mm×50 mm curved gavage needle affixed to a 1 ml syringe. Vincristine was dosed by IP injection once per week.
Toxicity was evaluated by body weight measurements and clinical observations. The mice were observed daily for overt signs of any adverse, treatment related side effects, and clinical signs of toxicity. Acceptable toxicity was set at a group mean body weight loss of less than 20% during the study and not more than one treatment related death in a group. Animals were monitored for body weights and tumor growth where tumor volumes were calculated using the formula: tumor volume=width^2×length/2.
The study evaluated Compound (I) fumarate administered by oral gavage, either daily at 7.5 mg/kg or 2 days on/5 days off at 13.5 mg/kg, in comparison to the standard-of-care agent vincristine, dosed in 4 weekly intraperitoneal injections of 0.5 mg/kg, in the MV4-11 acute myeloid leukemia xenograft model in SCID (severe combined immunodeficiency) mice. Xenografts were established by subcutaneously injecting 1×10^7 tumor cells into the right flank of female SCID mice. Treatment was initiated 14 days following implantation when tumor volumes reached a mean volume of approximately 90 mm^3. […] Animals were dosed in the 2-on/5-off schedule for 21 days. […] By day 13, the average volume of the control tumors was 878 mm^3, averaging […] tumor growth over the 13 days. On day 13 the average tumor growth inhibition in the vincristine treated arm was 85% (p=0.14).

K-562 = experiment: In vitro cytotoxicity (IC50) assay, alamarBlue; assay type: cell-based; settings: K-562, CML
Procedure: (§1) Cells were seeded in triplicate at 10,000 per 80 uL, into 96-well plates 24 hours before compound overlay and cultured at 37° C. and 5% CO2. Compound (I) was prepared as a 10 mM stock in 100% DMSO and diluted with RPMI 1640 cell growth medium containing 10% FBS such that the final concentrations ranged from 50 pM to 15 uM. Aliquots (20 uL) from each concentration were overlaid to 80 uL of pre-seeded cells to achieve final concentrations of 10 pM to 3 uM. After 3 days, cell viability in each well was assessed by alamarBlue assay according to the manufacturer's instruction (ThermoFisher Scientific). Absorbance was read at 570 nm using a SpectraPlus microplate reader (Molecular Devices Corporation). alamarBlue absorbance values were adjusted by subtracting the average of the baseline readings from untreated cells assessed one day after cell seeding. The percentage (%) of relative inhibition of cell viability was calculated by comparing to DMSO-treated cells. IC50s were calculated using GraphPad PRISM software (GraphPad Software Inc.).

KOPN-8 = experiment: In vitro cytotoxicity (IC50) assay, alamarBlue; assay type: cell-based; settings: KOPN-8, B-ALL
Procedure: as §1

HL-60 = experiment: In vitro cytotoxicity (IC50) assay, alamarBlue; assay type: cell-based; settings: HL-60, AML M2
Procedure: as §1

REH = experiment: In vitro cytotoxicity (IC50) assay, alamarBlue; assay type: cell-based; settings: B-ALL
Procedure: as §1

DAUDI = experiment: In vitro cytotoxicity (IC50) assay, alamarBlue; assay type: cell-based; settings: NHL B-Cell Burkitt
Procedure: as §1

RS4;11 = experiment: In vitro cytotoxicity (IC50) assay, alamarBlue; assay type: cell-based; settings: RS4;11, B-ALL
Procedure: as §1

TF-1 = experiment: In vitro cytotoxicity (IC50) assay, alamarBlue; assay type: cell-based; settings: TF-1, AML M6
Procedure: as §1

NALM-6 = experiment: In vitro cytotoxicity (IC50) assay, alamarBlue; assay type: cell-based; settings: NALM-6, B-ALL
Procedure: as §1

NALM-16 = experiment: In vitro cytotoxicity (IC50) assay, alamarBlue; assay type: cell-based; settings: NALM-16, B-ALL
Procedure: as §1

NB4 = experiment: In vitro cytotoxicity (IC50) assay, alamarBlue; assay type: cell-based; settings: NB4, AML M3
Procedure: as §1

OCI-LY18 = experiment: In vitro cytotoxicity (IC50) assay, alamarBlue; assay type: cell-based; settings: OCI-LY18, NHL GCB-DLBCL
Procedure: as §1

OCI-AML2 = experiment: In vitro cytotoxicity (IC50) assay, alamarBlue; assay type: cell-based; settings: OCI-AML2, AML M4
Procedure: as §1

OCI-LY8 = experiment: In vitro cytotoxicity (IC50) assay, alamarBlue; assay type: cell-based; settings: OCI-LY8, NHL GCB-DLBCL
Procedure: as §1

RAJI = experiment: In vitro cytotoxicity (IC50) assay, alamarBlue; assay type: cell-based; settings: NHL B-Cell Burkitt
Procedure: as §1

MOLT-4 = experiment: In vitro cytotoxicity (IC50) assay, alamarBlue; assay type: cell-based, human; settings: MOLT-4, T-ALL
Procedure: as §1

MV4-11 = experiment: In vitro cytotoxicity (IC50) assay, alamarBlue; assay type: cell-based, human; settings: MV4-11, AML M5
Procedure: as §1

[2] = Homo sapiens, 72 h, 3 days, read-out: Compound (I) IC50

Question: Which results are given for `COc1ccc2c(c1)[C@]1(C[C@H]1c1ccc3c(/C=C/c4ccc(CN5C[C@@H](C)O[C@@H](C)C5)cc4)n[nH]c3c1)C(=O)N2` [Compound (I), (1R,2S)-2-(3-((E)-4-(((2S,6R)-2,6-dimethylmorpholino)methyl)styryl)-1H-indazol-6-yl)-5′-methoxyspiro[cyclopropane-1,3′-indolin]-2′-one]?
Answer: animals remained tumor-free until ([1]; 2 days-on/5 days-off arm, 13.5 mg/kg): 24 days; overall efficacy in MV4-11 xenograft model ([1]; SCID mice): very efficacious and potentially curative; animals remained tumor-free until ([1]; daily dosing arm, 7.5 mg/kg): 74 days; animals tumor free until last measurement time point ([1]; daily dosing arm, Day 128): Four of 6; tumor response by day 10 ([1]; oral 13.5 mg/kg 2-on/5-off): completely regressed tumors; tumor response by day 10 ([1]; oral daily 7.5 mg/kg): completely regressed tumors; toxicity: reason daily dosing was halted ([1]; oral daily 7.5 mg/kg, halted after 14 days): excessive body weight loss; Response to Compound (I) (K-562): mitotic defects +; IC50 (KOPN-8; [2]): 0.7 nM; Response to Compound (I) (KOPN-8): death; Response to Compound (I) (HL-60): death; IC50 (HL-60; [2]): 8.4 nM; Response to Compound (I) (REH): death; IC50 (REH; [2]): 5.1 nM; IC50 (DAUDI; [2]): 0.2 nM; Response to Compound (I) (DAUDI): death; Response to Compound (I) (RS4;11): mitotic defects +; IC50 (TF-1; [2]): 2.2 nM; Response to Compound (I) (TF-1): death; Response to Compound (I) (NALM-6): mitotic defects +; Response to Compound (I) (NALM-16): mitotic defects +; Response to Compound (I) (NB4): mitotic defects +; Response to Compound (I) (OCI-LY18): mitotic defects +; Response to Compound (I) (OCI-AML2): mitotic defects +; Response to Compound (I) (OCI-LY8): mitotic defects +; IC50 (RAJI; [2]): 0.1 nM; Response to Compound (I) (RAJI): death; IC50 (MOLT-4; [2]): 4.1 nM; Response to Compound (I) (MOLT-4): death; IC50 (MV4-11; [2]): 5.7 nM; Response to Compound (I) (MV4-11): death
